The source of these data is article PMC9254247, “Dual-sensitive antibacterial peptide nanoparticles prevent dental caries” (Theranostics, 2022).

What is called MIC is the smallest concentration in the dilution series that meets the test's criterion for growth inhibition.

Converted amounts (≈) assume the structure as drawn. Like-named read-outs stand apart in the source and are kept apart here.

The test system of the experiment is clinically isolated S.mutans strains. The experiment is described as follows: MIC against clinically isolated S. mutans strains. As to conditions: Streptococcus mutans. It counts as cell-based. The source says:
Peptide and different pH of culture medium prepared. The pH of BHI medium […]
was adjusted by HCl and NaOH. […]
Isolation and culture of clinical S.mutans strains. Ethical approval of the study and the written consent/permission forms were obtained from Institutional Review Board (IRB) at Hunan Normal University prior to the study. For each child, written permission form was reviewed and signed by their legal guardians. Plaque -biofilm samples were collected from patients, including 16 Middle-aged and young patients and 4 children (age between 48 and 72 months) diagnosed with severe early childhood caries (S-ECC) in Changsha Stomatological Hospital. After being collected using a sterilized periodontal scaler, pooled plaque samples were transferred into 1 mL thiolglycollate solution, covered with 0.5 mL sterile paraffin wax and immediately transported to the laboratory for isolation. In order to sufficient disperse the aggregates, samples should be gently vortexed and sonicated before isolation. A series of diluted dispersed samples were plated on TYCSB at 37 °C under anaerobic conditions. Then, the suspicious clones were selected and plated on the mitis salivarius agar (MSA) plus bacitracin at 37 °C under anaerobic conditions for further isolation. The isolated S.mutans were most of identified by mass spectrometry and all identified by microbiochemical reaction again. All isolated S.mutans were stored with glycerol for subsequent experiments.
Minimal inhibition concentration (MIC) determination . S.mutans UA159 (ATCC 700610) and 20 clinical S.mutans strains were used. S.mutans UA159 was purchased from Shanghai Biofeng Biotechnology Co., LTD. These bacteria grown in brain heart infusion broth (BHI, Beijing Land Bridge, China) at 37 °C under anaerobic conditions.
Due to bacteria incubation under the condition of excessive acid for a long time will affect its vitality, therefore, pH 5.5 was choose as acidic condition for the MIC determination. Peptides and CHX were dissolved in BHI medium of different pHs (pH 5.5 and 7.0) using serial dilutions to obtain different diluted solutions. 2 µL of bacteria (1×10^7 CFU (colony forming units) in the logarithmic phase were added into each well of 96-well plates containing 200 µL different diluted solutions. Note that […]
the aggregate behavior of peptides. In order to avoid interfering with the MIC test, it is important to set up the control wells which only contain different concentrations of peptides in BHI medium of different pHs. The absorbance at 600 nm was detected with a microplate reader (Multiskan Spectrum, BioTek Inc., USA) after 48 h. The inhibition rate of drugs on bacteria was calculated based on the absorbance […]
The SYTO 9 / PI double staining and scanning electron microscopy (SEM) were also performed to evaluate the bacterial killing and bacterial membrane disruption.
For SYTO 9/PI double staining, pHly -1 NPs was added to actively growing S. mutans UA159 (10^6 CFU/m L) at the concentration of 22 μM at pH 4.5 or pH 7.0, after 1 h incubation, the bacteria treated were imaged by using LIVE/DEAD BacLight Bacterial Viability Kit (Thermo Fisher Scientific). SYTO 9 and PI were added according to the manufacturer ’s protocol and used for labeling […]
bacteria. […]
For SEM, S. mutans UA159 was treated by the same way to SYTO 9/PI double staining asay and then harvested, washed, and then fixed in 2.5 % glutaraldehyde for 3 h. After dehydration by serial concentrations of ethanol solutions (10%, 25%, 50%, 75%, 95%, and 100%) and lyophiliz ation overnight, the lyophilized samples were coated with goldand then photographed by SEM.

As to `[H]/N=C(\N/C(=N/[H])NCCCCCCNC(=N)NC(=N)Nc1ccc(Cl)cc1)Nc1ccc(Cl)cc1` [CHX, chlorhexidine], the MIC is 0.5 to 2 µM (≈ 0.253 to 1.01 µg/mL) (pH 5.5, pH 5.5, range over 20 clinical strains, read-out: MIC values against 20 bacterial strains); 1 µM (≈ 0.505 µg/mL) (pH 5.5, strain CS-1, pH 5.5, 5 repetitions, read-out: MIC); 0.5 µM (≈ 0.253 µg/mL) (pH 5.5, strain CS-2, pH 5.5, 5 repetitions, read-out: MIC); 1 µM (≈ 0.505 µg/mL) (pH 5.5, strain CS-3, pH 5.5, 5 repetitions, read-out: MIC); 1 µM (≈ 0.505 µg/mL) (pH 5.5, strain CS-4, pH 5.5, 5 repetitions, read-out: MIC); 2 µM (≈ 1.01 µg/mL) (pH 5.5, strain CS-5, pH 5.5, 5 repetitions, read-out: MIC). Besides, the MIC by setting is: (pH 5.5, strain CS-6, pH 5.5, 5 repetitions, read-out: MIC) 1 µM (≈ 0.505 µg/mL); (pH 5.5, strain CS-7, pH 5.5, 5 repetitions, read-out: MIC) 1 µM (≈ 0.505 µg/mL); (pH 5.5, strain CS-8, pH 5.5, 5 repetitions, read-out: MIC) 2 µM (≈ 1.01 µg/mL); (pH 5.5, strain CS-9, pH 5.5, 5 repetitions, read-out: MIC) 2 µM (≈ 1.01 µg/mL); (pH 5.5, strain CS-10, pH 5.5, 5 repetitions, read-out: MIC) 1 µM (≈ 0.505 µg/mL); (pH 5.5, strain CS-11, pH 5.5, 5 repetitions, read-out: MIC) 1 µM (≈ 0.505 µg/mL). The MIC by setting is: (pH 5.5, strain CS-12, pH 5.5, 5 repetitions, read-out: MIC) 0.5 µM (≈ 0.253 µg/mL); (pH 5.5, strain CS-13, pH 5.5, 5 repetitions, read-out: MIC) 1 µM (≈ 0.505 µg/mL); (pH 5.5, strain CS-14, pH 5.5, 5 repetitions, read-out: MIC) 1 µM (≈ 0.505 µg/mL); (pH 5.5, strain CS-15, pH 5.5, 5 repetitions, read-out: MIC) 2 µM (≈ 1.01 µg/mL); (pH 5.5, strain CS-16, pH 5.5, 5 repetitions, read-out: MIC) 1 µM (≈ 0.505 µg/mL); (pH 5.5, strain CS-17 (S-ECC child), pH 5.5, 5 repetitions, read-out: MIC) 1 µM (≈ 0.505 µg/mL). Further, the minimal inhibitory concentration (MIC) by setting is: (pH 5.5, strain CS-18 (S-ECC child), pH 5.5, 5 repetitions, read-out: MIC) 2 µM (≈ 1.01 µg/mL); (pH 5.5, strain CS-19 (S-ECC child), pH 5.5, 5 repetitions, read-out: MIC) 2 µM (≈ 1.01 µg/mL); (pH 5.5, strain CS-20 (S-ECC child), pH 5.5, 5 repetitions, read-out: MIC) 2 µM (≈ 1.01 µg/mL).
